Data as given in patent US20240109934A1, “ANTIBIOTICS WITH IMPROVED DRUG RESISTANCE PROFILE” (priority 2021, published 2024).
≈ marks a conversion by molar mass, not a printed value. Like-named read-outs stand apart in the source and are kept apart here.

Columns and labels:
[1] = tested on: multidrug-resistant clinical isolates of E. faecium; test: MIC against multidrug-resistant clinical isolates of E. faecium; assay type: cell-based; conditions: for Cross-resistance with vancomycin: E. faecium clinical isolates; for MIC: Enterococcus faecium
[2] = tested on: multidrug-resistant clinical isolates of S. aureus; test: MIC against multidrug-resistant clinical isolates of S. aureus; assay type: cell-based; conditions: for Cross-resistance with vancomycin: 29 clinical isolates of S. aureus; for MIC: Staphylococcus aureus
S. aureus ATCC 29213 = test: Neutropenic thigh infection burden study, sensitive strain; assay type: in vivo; conditions: neutropenic CD-1 mice, 50 mg/kg IP at 1, 2, 3 h post infection, burden at 24 h
[3] = Pharmacokinetic assessment in mice; assay type: in vivo, C57BL/6 mice
Procedure: FIG. 3. A). Pharmacokinetic analysis of fusidic acid and FA-CP. […] The data are illustrated as the mean and represent the average of three independent experiments. The pharmacokinetic parameters illustrated above were calculated with a one-compartment model using a non-linear regression program (Phoenix WinNonlin Version 8.1, Certara USA Inc. Princeton NJ 08540 USA). B). S. aureus ATCC 29213 neutropenic thigh infection burden study. CD-1 mice were first rendered neutropenic with cyclophosphamide. Mice were injected on (Day-4 to Day-2) with 150 mg/kg and on (Day-1) with 100 mg/kg of cyclophosphamide, respectively. […] C). S. aureus (FA-32×-B) neutropenic thigh infection study. CD-1 mice were first rendered neutropenic with cyclophosphamide as described above. […] Drugs were formulated with 5% DMSO, 10% Tween 20, 85% PBS immediately before injection. The data shown as means±s.d. and statistical significance was determined by one-way ANOVA with Tukey's multiple comparisons. NS indicates not significant (P>0.05), **P<0.01, ****P<0.0001.
Pharmacokinetic Assessment of sodium fusidate and FA-CP (25). […] The compounds were formulated in 5% DMSO, 10% Tween 20, and 85% PBS. Mice were treated with sodium fusidate or FA-CP (25) (50 mg/kg) via intraperitoneal injection with three mice per time point (15, 30, 45, 60, 120, and 240 min). At specific time points, mice were sacrificed, blood was collected and centrifuged, and the serum was frozen at −80° C. until analysis. The proteins in a 10 μL aliquot of serum were precipitated by the addition of 50 μL acetonitrile with the addition of 10 μL of 1.6 ug/mL internal standard (sodium fusidate was the internal standard when measuring FA-CP (25) and FA-CP (25) was the internal standard when measuring sodium fusidate). The sample was then vortexed and centrifuged to remove the proteins. Supernatants were analyzed with the QTRAP 5500 LC/MS/MS system (Sciex) in the Metabolomics Laboratory of the Roy J. Carver Biotechnology center, University of Illinois at Urbana-Champaign. Software Analyst 1.6.2 was used for data acquisition and analysis. The 1200 Series HPLC System (Agilent Technologies) includes a degasser, an autosampler and a binary pump. The liquid chromatography separation was performed on an Agilent Zorbax SB-Aq column (4.6 mm×50 mm; 5 μm) with mobile phase A (0.1% formic acid in water) and mobile phase B (0.1% formic acid in acetonitrile). The flow rate was 0.3 mL/min. The linear gradient was as follows: 0-1 min: 95% A; 8-13 min: 0% A; 8.1-18.5 min: 95% A. The autosampler was set at 10° C. The injection volume was 5 μL. Mass spectra were acquired under negative electrospray ionization with a voltage of −4,500 V. The source temperature was 450° C. The curtain gas, ion source gas 1 and ion source gas 2 were 32, 60 and 60 psi, respectively. […] The limit of quantitation of (S/N=10) was 1 nM. Pharmacokinetic parameters were calculated with a one-compartment model using a nonlinear regression program (Phoenix WinNonlin Version 8.1; Certara USA).

[4] = mice, 50 mg/kg intraperitoneal, serum, one-compartment model
[5] = female, C57BL/6, mouse, in vivo, ip, 50 mg/kg

## CC(=O)O[C@H]1C[C@@]2(C)[C@@H](C[C@@H](O)[C@H]3[C@@]4(C)CC[C@@H](O)[C@@H](C)[C@@H]4CC[C@@]32C)/C1=C(\CCC=C(C)C)C(=O)O [FA, Fusidic acid]
[1]
  Cross-resistance with vancomycin: no cross-resistance with vancomycin
[1]; E. faecium AR0572 (CDC), read-out: MIC
  MIC: 4 µg/mL (≈ 7.74 µM)
[1]; E. faecium AR0574 (CDC), read-out: MIC
  MIC: 2 µg/mL (≈ 3.87 µM)
[1]; E. faecium AR0575 (CDC), read-out: MIC
  MIC: 2 µg/mL (≈ 3.87 µM)
[1]; E. faecium AR0576 (CDC), read-out: MIC
  MIC: 4 µg/mL (≈ 7.74 µM)
[1]; E. faecium AR0578 (CDC), read-out: MIC
  MIC: 2 µg/mL (≈ 3.87 µM)
[1]; E. faecium AR0579 (CDC), read-out: MIC
  MIC: 1 µg/mL (≈ 1.94 µM)
[2]
  Cross-resistance with vancomycin: no cross-resistance with vancomycin
[2]; NRS3, S. aureus NRS3 (NARSA), read-out: MIC
  MIC: 0.0625 µg/mL (≈ 0.121 µM)
[2]; NRS4, S. aureus NRS4 (NARSA), read-out: MIC
  MIC: 0.0625 µg/mL (≈ 0.121 µM)
[2]; NRS17, S. aureus NRS17 (NARSA), read-out: MIC
  MIC: 0.0625 µg/mL (≈ 0.121 µM)
[2]; NRS18, S. aureus NRS18 (NARSA), read-out: MIC
  MIC: 0.125 µg/mL (≈ 0.242 µM)
[2]; NRS21, S. aureus NRS21 (NARSA), read-out: MIC
  MIC: 0.0625 µg/mL (≈ 0.121 µM)
[2]; NRS22, S. aureus NRS22 (NARSA), read-out: MIC
  MIC: 0.0625 µg/mL (≈ 0.121 µM)
[2]; NRS23, S. aureus NRS23 (NARSA), read-out: MIC
  MIC: 0.125 µg/mL (≈ 0.242 µM)
[2]; NRS24, S. aureus NRS24 (NARSA), read-out: MIC
  MIC: 0.0625 µg/mL (≈ 0.121 µM)
[2]; NRS26, S. aureus NRS26 (NARSA), read-out: MIC
  MIC: 0.0625 µg/mL (≈ 0.121 µM)
[2]; NRS27, S. aureus NRS27 (NARSA), read-out: MIC
  MIC: 0.125 µg/mL (≈ 0.242 µM)
[2]; NRS29, S. aureus NRS29 (NARSA), read-out: MIC
  MIC: 0.125 µg/mL (≈ 0.242 µM)
[2]; NRS51, S. aureus NRS51 (NARSA), read-out: MIC
  MIC: 0.0625 µg/mL (≈ 0.121 µM)
[2]; NRS68, S. aureus NRS68 (NARSA), read-out: MIC
  MIC: 0.125 µg/mL (≈ 0.242 µM)
[2]; NRS73, S. aureus NRS73 (NARSA), read-out: MIC
  MIC: 0.125 µg/mL (≈ 0.242 µM)
[2]; NRS74, S. aureus NRS74 (NARSA), read-out: MIC
  MIC: 0.125 µg/mL (≈ 0.242 µM)
[2]; NRS76, S. aureus NRS76 (NARSA), read-out: MIC
  MIC: 0.125 µg/mL (≈ 0.242 µM)
[2]; NRS77, S. aureus NRS77 (NARSA), no noted resistance, read-out: MIC
  MIC: 0.0625 µg/mL (≈ 0.121 µM)
[2]; NRS382, S. aureus NRS382 (NARSA), read-out: MIC
  MIC: 0.0625 µg/mL (≈ 0.121 µM)
[2]; NRS383, S. aureus NRS383 (NARSA), read-out: MIC
  MIC: 0.125 µg/mL (≈ 0.242 µM)
[2]; NRS384, S. aureus NRS384 (NARSA), read-out: MIC
  MIC: 0.125 µg/mL (≈ 0.242 µM)
[2]; S. aureus AR0561 (CDC), read-out: MIC
  MIC: 0.125 µg/mL (≈ 0.242 µM)
[2]; S. aureus AR0562 (CDC), read-out: MIC
  MIC: 0.125 µg/mL (≈ 0.242 µM)
[2]; S. aureus AR0563 (CDC), read-out: MIC
  MIC: 0.125 µg/mL (≈ 0.242 µM)
[2]; S. aureus AR0564 (CDC), read-out: MIC
  MIC: 0.125 µg/mL (≈ 0.242 µM)
[2]; S. aureus AR0565 (CDC), read-out: MIC
  MIC: 0.0625 µg/mL (≈ 0.121 µM)
[2]; S. aureus AR0566 (CDC), read-out: MIC
  MIC: 0.125 µg/mL (≈ 0.242 µM)
[2]; S. aureus AR0567 (CDC), read-out: MIC
  MIC: 0.125 µg/mL (≈ 0.242 µM)
[2]; S. aureus AR0568 (CDC), read-out: MIC
  MIC: 0.125 µg/mL (≈ 0.242 µM)
[2]; S. aureus AR0570 (CDC), read-out: MIC
  MIC: 0.125 µg/mL (≈ 0.242 µM)
S. aureus ATCC 29213
  Bacterial burden in thigh: Significant reductions in bacterial burden
[3]; female, C57BL/6, mouse, in vivo, ip, mice, 50 mg/kg intraperitoneal, serum, one-compartment model, read-out: AUC (converted)
  AUC: 9360 ng·h/mL
[3]; female, C57BL/6, mouse, in vivo, ip, mice, 50 mg/kg intraperitoneal, serum, one-compartment model, read-out: Cmax
  Cmax: 11100 ng/mL
[3]; female, C57BL/6, mouse, in vivo, ip, mice, 50 mg/kg intraperitoneal, serum, one-compartment model, read-out: Tmax (converted)
  Tmax: 5.4 min
[3]; [4]
  CL_F: 89.0 mL/min/kg
  K10_HL: 31.2 min

## CC(=O)O[C@H]1C[C@@]2(C)[C@@H](C[C@@H](O)[C@H]3[C@@]4(C)CC[C@@H](O)[C@@H](C)[C@@H]4CC[C@@]32C)/C1=C(\CCC=C1CCCC1)C(=O)O [FA-CP, (Z)-2-((3R,4S,5S,8S,9S,10S,11R,13R,14S,16S)-16-acetoxy-3,11-dihydroxy-4,8,10,14-tetramethylhexadecahydro-17H-cyclopenta[a]phenanthren-17-ylidene)-5-cyclopentylidenepentanoic acid]
[1]
  Cross-resistance with vancomycin: no cross-resistance with vancomycin
[1]; E. faecium AR0572 (CDC)
  MIC: 4 µg/mL (≈ 7.37 µM)
[1]; E. faecium AR0574 (CDC)
  MIC: 2 µg/mL (≈ 3.68 µM)
[1]; E. faecium AR0575 (CDC)
  MIC: 2 µg/mL (≈ 3.68 µM)
[1]; E. faecium AR0576 (CDC)
  MIC: 4 µg/mL (≈ 7.37 µM)
[1]; E. faecium AR0578 (CDC)
  MIC: 2 µg/mL (≈ 3.68 µM)
[1]; E. faecium AR0579 (CDC)
  MIC: 1 µg/mL (≈ 1.84 µM)
[2]
  Cross-resistance with vancomycin: no cross-resistance with vancomycin
[2]; NRS3, S. aureus NRS3 (NARSA)
  MIC: 0.0625 µg/mL (≈ 0.115 µM)
[2]; NRS4, S. aureus NRS4 (NARSA)
  MIC: 0.0625 µg/mL (≈ 0.115 µM)
[2]; NRS17, S. aureus NRS17 (NARSA)
  MIC: 0.0625 µg/mL (≈ 0.115 µM)
[2]; NRS18, S. aureus NRS18 (NARSA)
  MIC: 0.125 µg/mL (≈ 0.23 µM)
[2]; NRS21, S. aureus NRS21 (NARSA)
  MIC: 0.0625 µg/mL (≈ 0.115 µM)
[2]; NRS22, S. aureus NRS22 (NARSA)
  MIC: 0.0625 µg/mL (≈ 0.115 µM)
[2]; NRS23, S. aureus NRS23 (NARSA)
  MIC: 0.125 µg/mL (≈ 0.23 µM)
[2]; NRS24, S. aureus NRS24 (NARSA)
  MIC: 0.0625 µg/mL (≈ 0.115 µM)
[2]; NRS26, S. aureus NRS26 (NARSA)
  MIC: 0.0625 µg/mL (≈ 0.115 µM)
[2]; NRS27, S. aureus NRS27 (NARSA)
  MIC: 0.125 µg/mL (≈ 0.23 µM)
[2]; NRS29, S. aureus NRS29 (NARSA)
  MIC: 0.125 µg/mL (≈ 0.23 µM)
[2]; NRS51, S. aureus NRS51 (NARSA)
  MIC: 0.0625 µg/mL (≈ 0.115 µM)
[2]; NRS68, S. aureus NRS68 (NARSA)
  MIC: 0.125 µg/mL (≈ 0.23 µM)
[2]; NRS73, S. aureus NRS73 (NARSA)
  MIC: 0.125 µg/mL (≈ 0.23 µM)
[2]; NRS74, S. aureus NRS74 (NARSA)
  MIC: 0.125 µg/mL (≈ 0.23 µM)
[2]; NRS76, S. aureus NRS76 (NARSA)
  MIC: 0.125 µg/mL (≈ 0.23 µM)
[2]; NRS77, S. aureus NRS77 (NARSA), no noted resistance
  MIC: 0.0625 µg/mL (≈ 0.115 µM)
[2]; NRS382, S. aureus NRS382 (NARSA)
  MIC: 0.0625 µg/mL (≈ 0.115 µM)
[2]; NRS383, S. aureus NRS383 (NARSA)
  MIC: 0.125 µg/mL (≈ 0.23 µM)
[2]; NRS384, S. aureus NRS384 (NARSA)
  MIC: 0.125 µg/mL (≈ 0.23 µM)
[2]; S. aureus AR0561 (CDC)
  MIC: 0.125 µg/mL (≈ 0.23 µM)
[2]; S. aureus AR0562 (CDC)
  MIC: 0.125 µg/mL (≈ 0.23 µM)
[2]; S. aureus AR0563 (CDC)
  MIC: 0.125 µg/mL (≈ 0.23 µM)
[2]; S. aureus AR0564 (CDC)
  MIC: 0.125 µg/mL (≈ 0.23 µM)
[2]; S. aureus AR0565 (CDC)
  MIC: 0.0625 µg/mL (≈ 0.115 µM)
[2]; S. aureus AR0566 (CDC)
  MIC: 0.125 µg/mL (≈ 0.23 µM)
[2]; S. aureus AR0567 (CDC)
  MIC: 0.125 µg/mL (≈ 0.23 µM)
[2]; S. aureus AR0568 (CDC)
  MIC: 0.125 µg/mL (≈ 0.23 µM)
[2]; S. aureus AR0570 (CDC)
  MIC: 0.125 µg/mL (≈ 0.23 µM)
S. aureus ATCC 29213
  Bacterial burden in thigh: Significant reductions in bacterial burden
[3]; [5]
  AUC: 11700 ng·h/mL
  CL_F: 71.3 mL/min/kg
  Cmax: 9760 ng/mL
  K10_HL: 19.0 min
  Tmax: 26.4 min
